Experimental data taken from patent US7297794B2, “Phenoxy amine compounds and compositions for delivering active agents” (Emisphere Technologies, Inc., priority 2001, dated 2007).
Where “and” joins values, the source holds several entries; their conditions need not be identical. Identical values can stand only once. Counter-ions that a name gives are not always drawn.

Experiments:
[1] = Oral BIBN4096BS Delivery (peak BIBN4096BS concentration after oral gavage with delivery agent compound); details: rat, delivery agent compound 200 mg/kg + BIBN4096BS 25 mg/kg, 1 ml/kg
Description: Oral gavage (PO) dosing solutions of delivery agent compound and the calcitonin gene-related peptide antagonist, 1-piperidinecarboxamide, N-[2-[[5-amino-1-[[4-(4-pyridinyl)-1-piperazinyl)carbonyl]pentyl]amino]-1-[(3,5-dibromo-4-hydroxyphenyl)methyl]-2-oxoethyl]-4(1,4-dihydro-2-oxo-3(2H0-quinazolinyl)-. [R—(R*,S*)]- (BIBN4096BS) in water were prepared. […] The final dosing solutions were prepared by mixing the delivery agent compound with a BIBN4096BS stock solution and diluting to the desired volume (usually 1.0 mL). If necessary, the pH of the mixture was adjusted by the addition of aliquots of aqueous hydrochloric acid solution of an appropriate normality until the final pH of the dissolved delivery agent compound was below 7.0. The final compound amounts per dose were 25 mg/kg of BIBN4096BS and 200 mg/kg of delivery agent compound in a total volume of 1 mL/kg.
The typical dosing and sampling protocols were as follows. Male Sprague-Dawley rats weighing between 200-250 g were fasted for 24 hours and administered ketamine (44 mg/kg) and chlorpromazine (1.5 mg/kg) 15 minutes prior to dosing. A dosing group of five rats was administered one of the dosing solutions. […] Plasma BIBN4096BS concentrations were quantified by using a liquid chromatography/mass spectrometry/mass spectrometry assay method using UV detection. […]

[2] = Insulin - Oral Delivery (glucose levels in serum after oral dosing of delivery agent compound with human zinc insulin); assay type: in vivo, Male Sprague-Dawley rats; details: rat, delivery agent compound 200 mg/kg + insulin 0.5 mg/kg, volume dose 2 ml/kg
Description: Oral dosing (PO) compositions of delivery agent compound and human zinc insulin (minimum 26 IU/mg available from Calbiochem-Novabiochem Corp, La Jolla, Calif.) were prepared in deionized water. Typically, 500 mg of delivery agent compound was added to 1.5 ml of water. The solution was vortexed, then heated (about 37° C.) and sonicated. The pH was adjusted to about 7 to 8.5 with NaOH or HCl. Additional NaOH was added, if necessary, to achieve uniform solubility, and the pH re-adjusted to about 7 to 8.5. Water was then added to bring the total volume to about 2.4 ml and vortexed. About 1.25 mg insulin from an insulin stock solution ([…] made from 0.5409 g insulin and 18 ml deionized water, adjusting with HCl and NaOH to pH 8.15 and to obtain a clear solution using […]) was added to the solution and mixed by inverting. The solution may be used in the dosing protocol immediately, or alternatively, the solution may be placed into a 37° C. water bath for one hour prior to dosing. The final delivery agent compound dose, insulin dose and dose volume amounts are listed below in Table 1.
The typical dosing and sampling protocols were as follows. […] A dosing group of five animals was administered one of the dosing solutions. […] The dosing solution was administered by pressing the syringe plunger.

Row | Molecule | Mean Peak Serum ± sd ng/ml (BIBN4096BS) [1] | Glucose Levels in Serum (% change from baseline ± SD) [2] | melting point
1 | CS(=O)(=O)O.Oc1ccccc1OCCCCCCCCN1CCOCC1 [1 (Mesylate), (4-(8-(2-hydroxyphenoxy)octyl)morpholine)mesylate] | 408 ± 340 ng/mL and 608 ± 552 ng/mL |  | 
2 | CC(=O)c1ccccc1OCCCCCCN(C)C.Cl [Compound 8, 6-(2-acetylphenoxy)-1-dimethylaminohexane hydrochloride] |  | −8.2 ± 9.5% | 138 to 141 °C
3 | Oc1ccccc1OCCCCCCCCN1CCOCC1 (as salt: salt) [Compound 1, 4-8-(2-hydroxyphenoxy) octylmorpholine] |  |  | 137 to 139 °C
4 | 4-(4-(2-hydroxyphenoxy)butyl)morpholinium Citrate [Compound 7] |  | −11.7 ± 3.4% | 
5 | OCCN(CCO)CCCCCCCCOc1ccccc1O [Compound 2, 8-(2-hydroxyphenoxy) octyldiethanolamine) citrate] |  | −10.8 ± 6.8% | 
6 | Oc1ccccc1OCCCCCCCN1CCOCC1 [Compound 3, 7-(4-(2hydroxyphenoxy)heptylmorpholinium citrate] |  | −9.8 ± 4% | 
7 | Oc1ccc(OCCCCCCN2CCOCC2)cc1 [Compound 4] |  | −2.3 ± 10.6% | 
8 | Oc1ccccc1OCCCCCCCCN1CCOCC1 [Compound 1, 4-8-(2-hydroxyphenoxy) octylmorpholine] |  | −5.9 ± 4.6% and 0.3 ± 8.2% | 
9 | NCCCCCCCCOc1ccc(O)cc1 [Compound 6, 8-(4-hydroxyphenoxy)octanamine] |  | 6.4 ± 17.1% | 
